Where two headings read alike, the source gives them in different places.
Tests used:
EGFR del19/T790M/C797S = EGFR del19/T790M/C797S (Homo sapiens, UniProt P00533, C797S/DEL746-750/T790M); test: Biochemical EGFR kinase assay (Lance Ultra TR-FRET), triple mutant del19/T790M/C797S
Outline: (§1)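 Enzyme reactions lasted 1 hour at room temperature with test compounds between 0.003 and 10 μM, followed by 10 mM EDTA quench.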

EGFR L858R/T790M/C797S = EGFR L858R/T790M/C797S (Homo sapiens, UniProt P00533, C797S/L858R/T790M); test: Biochemical EGFR kinase assay (Lance Ultra TR-FRET), triple mutant L858R/T790M/C797S
Sequence of EGFR L858R/T790M/C797S (P00533 25-1210 T790M/C797S/L858R): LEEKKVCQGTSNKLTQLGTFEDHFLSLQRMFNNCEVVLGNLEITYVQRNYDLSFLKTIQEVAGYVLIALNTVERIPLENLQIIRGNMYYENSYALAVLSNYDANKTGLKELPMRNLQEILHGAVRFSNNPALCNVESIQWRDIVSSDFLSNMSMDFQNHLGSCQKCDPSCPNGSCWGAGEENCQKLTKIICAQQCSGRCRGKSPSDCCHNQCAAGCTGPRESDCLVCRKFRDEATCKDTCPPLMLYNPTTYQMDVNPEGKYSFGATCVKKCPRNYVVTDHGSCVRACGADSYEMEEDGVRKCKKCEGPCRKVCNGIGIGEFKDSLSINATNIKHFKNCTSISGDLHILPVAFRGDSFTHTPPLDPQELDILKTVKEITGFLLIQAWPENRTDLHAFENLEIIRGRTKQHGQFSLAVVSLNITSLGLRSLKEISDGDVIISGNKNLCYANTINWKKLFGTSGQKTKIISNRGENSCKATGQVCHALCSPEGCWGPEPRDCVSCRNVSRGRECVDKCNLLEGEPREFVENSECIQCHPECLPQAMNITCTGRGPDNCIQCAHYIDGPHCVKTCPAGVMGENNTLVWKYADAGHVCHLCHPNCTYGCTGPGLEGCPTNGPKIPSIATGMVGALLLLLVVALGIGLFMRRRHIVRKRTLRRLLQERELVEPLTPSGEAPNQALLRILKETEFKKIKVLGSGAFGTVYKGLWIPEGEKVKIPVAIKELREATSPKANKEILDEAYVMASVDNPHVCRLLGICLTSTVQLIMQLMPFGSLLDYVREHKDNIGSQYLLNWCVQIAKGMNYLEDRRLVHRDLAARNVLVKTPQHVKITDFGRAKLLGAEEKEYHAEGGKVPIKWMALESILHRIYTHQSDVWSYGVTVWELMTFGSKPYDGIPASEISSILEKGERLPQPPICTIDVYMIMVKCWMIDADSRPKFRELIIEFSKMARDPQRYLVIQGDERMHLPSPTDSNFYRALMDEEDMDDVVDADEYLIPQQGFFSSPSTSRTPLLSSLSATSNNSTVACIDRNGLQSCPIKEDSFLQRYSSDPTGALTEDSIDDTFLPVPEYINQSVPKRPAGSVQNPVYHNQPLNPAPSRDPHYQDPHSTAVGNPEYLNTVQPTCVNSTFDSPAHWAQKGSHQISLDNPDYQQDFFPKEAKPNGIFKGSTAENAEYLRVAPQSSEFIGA
Outline: as §1

EGFR del19/C797S = EGFR del19/C797S (Homo sapiens, UniProt P00533, C797S/DEL746-750); test: Biochemical EGFR kinase assay (Lance Ultra TR-FRET), double mutant del19/C797S
Sequence of EGFR del19/C797S (P00533 with tags, fused parts or gaps DEL746-750/C797S): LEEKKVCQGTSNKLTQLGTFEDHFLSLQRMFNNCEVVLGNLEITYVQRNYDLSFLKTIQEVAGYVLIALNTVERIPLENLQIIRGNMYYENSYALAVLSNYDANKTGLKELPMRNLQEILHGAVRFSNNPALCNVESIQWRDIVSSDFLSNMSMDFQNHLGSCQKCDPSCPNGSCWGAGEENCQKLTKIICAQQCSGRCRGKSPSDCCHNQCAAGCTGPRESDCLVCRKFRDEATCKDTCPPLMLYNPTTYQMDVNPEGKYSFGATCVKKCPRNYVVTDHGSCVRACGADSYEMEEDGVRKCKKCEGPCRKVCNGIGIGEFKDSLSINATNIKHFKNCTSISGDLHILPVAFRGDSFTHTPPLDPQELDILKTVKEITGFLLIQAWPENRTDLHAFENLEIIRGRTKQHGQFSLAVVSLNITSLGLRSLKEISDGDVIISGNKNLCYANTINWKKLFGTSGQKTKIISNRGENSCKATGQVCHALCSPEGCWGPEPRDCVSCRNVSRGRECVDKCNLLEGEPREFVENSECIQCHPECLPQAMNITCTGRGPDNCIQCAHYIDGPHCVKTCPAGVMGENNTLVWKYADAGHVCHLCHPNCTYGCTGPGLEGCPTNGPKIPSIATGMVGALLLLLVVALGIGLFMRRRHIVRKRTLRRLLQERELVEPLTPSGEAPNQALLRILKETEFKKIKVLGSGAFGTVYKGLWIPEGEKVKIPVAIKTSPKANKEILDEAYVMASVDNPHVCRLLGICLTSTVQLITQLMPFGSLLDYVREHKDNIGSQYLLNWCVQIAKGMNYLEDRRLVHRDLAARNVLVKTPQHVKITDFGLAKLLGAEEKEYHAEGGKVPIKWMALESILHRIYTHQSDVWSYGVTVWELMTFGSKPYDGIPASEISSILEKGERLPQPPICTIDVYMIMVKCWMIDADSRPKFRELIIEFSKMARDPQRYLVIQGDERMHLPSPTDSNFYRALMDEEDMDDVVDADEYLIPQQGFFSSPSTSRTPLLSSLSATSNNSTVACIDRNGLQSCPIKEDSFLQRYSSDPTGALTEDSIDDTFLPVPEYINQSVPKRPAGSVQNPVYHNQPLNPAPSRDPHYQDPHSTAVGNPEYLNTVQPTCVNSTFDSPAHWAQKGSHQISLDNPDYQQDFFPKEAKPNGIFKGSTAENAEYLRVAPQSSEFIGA
Outline: as §1

EGFR L858R/C797S = EGFR L858R/C797S (Homo sapiens, UniProt P00533, C797S/L858R); test: Biochemical EGFR kinase assay (Lance Ultra TR-FRET), double mutant L858R/C797S
Sequence of EGFR L858R/C797S (P00533 25-1210 C797S/L858R): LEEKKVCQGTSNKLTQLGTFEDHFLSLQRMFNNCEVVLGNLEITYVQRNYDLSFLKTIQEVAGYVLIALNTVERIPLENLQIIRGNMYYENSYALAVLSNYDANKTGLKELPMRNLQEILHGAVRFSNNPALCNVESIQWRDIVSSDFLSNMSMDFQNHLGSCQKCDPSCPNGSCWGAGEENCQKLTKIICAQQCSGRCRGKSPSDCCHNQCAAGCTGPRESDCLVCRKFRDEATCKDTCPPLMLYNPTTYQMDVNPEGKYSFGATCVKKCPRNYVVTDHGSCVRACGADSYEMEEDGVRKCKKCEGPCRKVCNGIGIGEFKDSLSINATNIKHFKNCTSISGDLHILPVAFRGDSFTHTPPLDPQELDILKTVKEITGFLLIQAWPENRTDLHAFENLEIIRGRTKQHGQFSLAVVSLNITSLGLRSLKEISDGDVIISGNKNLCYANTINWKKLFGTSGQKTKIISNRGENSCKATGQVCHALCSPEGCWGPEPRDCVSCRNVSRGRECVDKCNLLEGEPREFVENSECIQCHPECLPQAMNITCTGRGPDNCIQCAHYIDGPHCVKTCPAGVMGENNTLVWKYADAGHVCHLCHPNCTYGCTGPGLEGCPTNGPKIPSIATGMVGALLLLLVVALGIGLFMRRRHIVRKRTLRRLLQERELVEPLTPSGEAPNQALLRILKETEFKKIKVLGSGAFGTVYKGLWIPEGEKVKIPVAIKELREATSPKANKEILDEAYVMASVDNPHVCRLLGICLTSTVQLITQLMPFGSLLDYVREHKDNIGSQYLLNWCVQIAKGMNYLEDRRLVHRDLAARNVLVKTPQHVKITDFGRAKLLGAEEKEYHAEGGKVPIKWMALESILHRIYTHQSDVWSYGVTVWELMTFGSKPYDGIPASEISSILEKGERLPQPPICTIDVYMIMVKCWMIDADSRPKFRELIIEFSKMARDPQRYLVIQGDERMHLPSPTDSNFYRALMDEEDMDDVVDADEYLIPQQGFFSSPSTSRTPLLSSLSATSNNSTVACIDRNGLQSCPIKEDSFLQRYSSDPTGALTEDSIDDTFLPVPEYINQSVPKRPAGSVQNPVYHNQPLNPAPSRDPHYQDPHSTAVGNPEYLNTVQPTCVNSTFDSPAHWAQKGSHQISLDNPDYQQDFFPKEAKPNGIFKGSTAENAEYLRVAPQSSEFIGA
Outline: as §1

EGFR wildtype = EGFR wildtype (Homo sapiens, UniProt P00533); test: Biochemical EGFR kinase assay (Lance Ultra TR-FRET), wildtype
Outline: as §1

[1] = IC50 del19/T790M/C797S (nM) 100 μM ATP, 100 μM ATP
[2] = Km ATP, read-out: IC50 del19/T790M/C797S (nM) Km ATP
[3] = IC50 L858R/T790M/C797S (nM) 100 μM ATP, 100 μM ATP
[4] = Km ATP, read-out: IC50 L858R/T790M/C797S (nM) Km ATP
[5] = IC50 del19/C797S (nM) 100 μM ATP, 100 μM ATP
[6] = Km ATP, read-out: IC50 del19/C797S (nM) Km ATP
[7] = IC50 L858R/C797S (nM) 100 μM ATP, 100 μM ATP
[8] = Km ATP, read-out: IC50 L858R/C797S (nM) Km ATP
[9] = IC50 WT (nM) 100 μM ATP, 100 μM ATP
[10] = Km ATP, read-out: IC50 WT (nM) Km ATP
[11] = ATP at Km, read-out: IC50 del19/T790M/C797S, Km ATP
[12] = IC50 del19/T790M/C797S, 100 μM ATP
[13] = ATP at Km, read-out: IC50 L858R/T790M/C797S, Km ATP
[14] = IC50 L858R/T790M/C797S, 100 μM ATP
[15] = ATP at Km, read-out: IC50 del19/C797S, Km ATP
[16] = ATP at Km, read-out: IC50 L858R/C797S, Km ATP
[17] = ATP at Km, read-out: IC50 WT, Km ATP

Sequence of EGFR del19/T790M/C797S (P00533 with tags, fused parts or gaps DEL746-750/T790M/C797S): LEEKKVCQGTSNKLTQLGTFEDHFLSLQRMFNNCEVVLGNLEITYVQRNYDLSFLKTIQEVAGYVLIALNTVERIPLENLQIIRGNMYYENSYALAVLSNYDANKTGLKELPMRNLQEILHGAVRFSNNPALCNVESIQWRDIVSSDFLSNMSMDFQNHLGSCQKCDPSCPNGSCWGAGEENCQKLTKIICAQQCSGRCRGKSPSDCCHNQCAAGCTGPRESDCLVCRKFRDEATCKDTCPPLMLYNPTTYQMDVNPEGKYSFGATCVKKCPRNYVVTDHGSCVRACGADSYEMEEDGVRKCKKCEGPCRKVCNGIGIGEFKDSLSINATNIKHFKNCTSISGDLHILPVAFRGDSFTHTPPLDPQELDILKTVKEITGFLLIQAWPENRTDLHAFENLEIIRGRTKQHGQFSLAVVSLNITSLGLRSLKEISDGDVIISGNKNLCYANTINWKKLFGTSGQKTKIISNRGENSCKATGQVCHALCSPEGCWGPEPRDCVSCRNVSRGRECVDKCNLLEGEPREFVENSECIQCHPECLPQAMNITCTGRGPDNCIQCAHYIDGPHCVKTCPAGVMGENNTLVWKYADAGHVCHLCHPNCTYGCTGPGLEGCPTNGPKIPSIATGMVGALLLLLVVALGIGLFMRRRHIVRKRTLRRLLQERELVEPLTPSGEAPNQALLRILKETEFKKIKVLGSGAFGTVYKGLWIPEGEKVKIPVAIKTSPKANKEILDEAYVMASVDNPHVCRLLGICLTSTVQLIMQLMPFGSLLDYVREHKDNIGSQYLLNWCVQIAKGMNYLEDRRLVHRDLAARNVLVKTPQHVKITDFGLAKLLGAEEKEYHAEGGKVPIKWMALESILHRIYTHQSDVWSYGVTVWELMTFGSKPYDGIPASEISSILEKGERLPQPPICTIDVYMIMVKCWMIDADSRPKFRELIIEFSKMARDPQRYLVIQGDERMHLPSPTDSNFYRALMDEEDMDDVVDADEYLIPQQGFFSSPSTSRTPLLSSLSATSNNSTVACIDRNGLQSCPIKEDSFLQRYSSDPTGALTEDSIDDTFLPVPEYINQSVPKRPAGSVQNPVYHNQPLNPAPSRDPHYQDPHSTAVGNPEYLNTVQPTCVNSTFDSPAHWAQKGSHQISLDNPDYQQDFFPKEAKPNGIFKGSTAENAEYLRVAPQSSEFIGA

SMILES | IC50 (EGFR del19/T790M/C797S; [1]) [nM] | IC50 (EGFR del19/T790M/C797S; [2]) [nM] | IC50 (EGFR L858R/T790M/C797S; [3]) [nM] | IC50 (EGFR L858R/T790M/C797S; [4]) [nM] | IC50 (EGFR del19/C797S; [5]) [nM] | IC50 (EGFR del19/C797S; [6]) [nM] | IC50 (EGFR L858R/C797S; [7]) [nM] | IC50 (EGFR L858R/C797S; [8]) [nM] | IC50 (EGFR wildtype; [9]) [nM] | IC50 (EGFR wildtype; [10]) [nM] | IC50 (EGFR del19/T790M/C797S; [11]) [nM] | IC50 (EGFR del19/T790M/C797S; [12]) [nM] | IC50 (EGFR L858R/T790M/C797S; [13]) [nM] | IC50 (EGFR L858R/T790M/C797S; [14]) [nM] | IC50 (EGFR del19/C797S; [15]) [nM] | IC50 (EGFR del19/C797S; IC50 del19/C797S, 100 μM ATP) [nM] | IC50 (EGFR L858R/C797S; [16]) [nM] | IC50 (EGFR L858R/C797S; IC50 L858R/C797S, 100 μM ATP) [nM] | IC50 (EGFR wildtype; [17]) [nM] | IC50 (EGFR wildtype; IC50 WT, 100 μM ATP) [nM]
O=S(=O)(C1CC1)n1cc(-c2nccc(Nc3cc(N[C@H]4CC[C@@H](CCO)CC4)c(-c4cc(C(F)F)ccn4)cn3)n2)cn1 [Example 97, 2-((1s,4s)-4-((6′-((2-(1-(Cyclopropylsulfonyl)-1H-pyrazol-4-yl)pyrimidin-4-yl)amino)-4-(difluoromethyl)-[2,3′-bipyridin]-4′-yl)amino)cyclohexyl)ethan-1-ol] | 2.2 | 2.1 | 1 | 0.5 | 6 | 2.3 | 52.6 | 2 | > 10000 | 7.4 |  |  |  |  |  |  |  |  |  | 
CN(C)C[C@H]1CC[C@@H](Nc2cc(Nc3ccnc(-c4cnn(S(=O)(=O)C5CC5)c4)n3)ncc2-c2cccc(CC(F)(F)F)n2)CC1 [Example 248, N^6′-(2-(1-(Cyclopropylsulfonyl)-1H-pyrazol-4-yl)pyrimidin-4-yl)-N^4′-((1s,4s)-4-((dimethylamino)methyl)cyclohexyl)-6-(2,2,2-trifluoroethyl)-[2,3′-bipyridine]-4′,6′-diamine] |  |  |  |  |  |  |  |  |  |  | 0.4 | 0.4 | 0.1 | 0.3 | 2 | 5 | 1.8 | 9.7 | 4.6 | 7620
CC(O)(c1ccc(-c2cnc(Nc3ccnc(-c4cnn(S(=O)(=O)C5CC5)c4)n3)cc2NC2CCC(CO)CC2)nc1)C(F)(F)F (stereo not drawn) [Example 231, 2-(6′-((2-(1-(Cyclopropylsulfonyl)-1H-pyrazol-4-yl)pyrimidin-4-yl)amino)-4′-(((1s,4s)-4-(hydroxymethyl)cyclohexyl)amino)-[2,3′-bipyridin]-5-yl)-1,1,1-trifluoropropan-2-ol] |  |  |  |  |  |  |  |  |  |  | 1.4 | 2 | 0.4 | 0.9 | 1.7 | 6.4 | 1.2 | 4.6 | 4.1 | 502
C[C@]1(O)CC[C@@H](Nc2cc(Nc3ccnc(-c4cnn(S(=O)(=O)C5CC5)c4)n3)ncc2-c2cnc(N3CCOCC3)cn2)CC1 [Example 44, (1s,4s)-4-((2-((2-(1-(Cyclopropylsulfonyl)-1H-pyrazol-4-yl)pyrimidin-4-yl)amino)-5-(5-morpholinopyrazin-2-yl)pyridin-4-yl)amino)-1-methylcyclohexan-1-ol] | 0.6 |  | 0.6 |  | 0.8 |  | 7.1 |  | > 10000 |  |  |  |  |  |  |  |  |  |  | 
CC(O)(c1ccc(-c2cnc(Nc3ccnc(-c4cnn(S(=O)(=O)C5CC5)c4)n3)cc2NC2CCC(F)CC2)nc1)C(F)(F)F (stereo not drawn) [Example 265, 2-(6′-((2-(1-(Cyclopropylsulfonyl)-1H-pyrazol-4-yl)pyrimidin-4-yl)amino)-4′-(((1s,4s)-4-fluorocyclohexyl)amino)-[2,3′-bipyridin]-5-yl)-1,1,1-trifluoropropan-2-ol] |  |  |  |  |  |  |  |  |  |  | 31 |  | 22 |  | 16.9 |  | 85.3 |  | 365 | 
O=S(=O)(C1CC1)n1cc(-c2nccc(Nc3cc(N[C@H]4CC[C@@H](CO)CC4)c(-c4ccnc(N[C@H]5CC[C@@H](CO)CC5)n4)cn3)n2)cn1 [Example 192, ((1s,4s)-4-((4-(6-((2-(1-(Cyclopropylsulfonyl)-1H-pyrazol-4-yl)pyrimidin-4-yl)amino)-4-(((1s,4s)-4-(hydroxymethyl)cyclohexyl)amino)pyridin-3-yl)pyrimidin-2-yl)amino)cyclohexyl)methanol] |  |  |  |  |  |  |  |  |  |  |  | 0.6 |  | 0.5 |  | 2 |  | 7.8 |  | 6510
C[C@]1(O)CC[C@@H](Nc2cc(Nc3ccnc(-c4cnn(S(=O)(=O)C5CC5)c4)n3)ncc2-c2cnc(OC3COC3)cn2)CC1 [Example 150, (1s,4s)-4-((2-((2-(1-(Cyclopropylsulfonyl)-1H-pyrazol-4-yl)pyrimidin-4-yl)amino)-5-(5-(oxetan-3-yloxy)pyrazin-2-yl)pyridin-4-yl)amino)-1-methylcyclohexan-1-ol] |  | 0.2 |  | 0.1 |  | 0.5 |  | 0.4 |  | 6.2 |  |  |  |  |  |  |  |  |  | 
CN1CCC(Oc2cccc(-c3cnc(Nc4ccnc(-c5cnn(S(=O)(=O)C6CC6)c5)n4)cc3N[C@H]3CC[C@@](C)(O)CC3)n2)CC1 [Example 286, (1s,4s)-4-((6′-((2-(1-(Cyclopropylsulfonyl)-1H-pyrazol-4-yl)pyrimidin-4-yl)amino)-6-((1-methylpiperidin-4-yl)oxy)-[2,3′-bipyridin]-4′-yl)amino)-1-methylcyclohexan-1-ol] |  |  |  |  |  |  |  |  |  |  | 0.2 | 0.3 | 0.1 | 0.3 | 0.3 | 0.3 | 0.1 | 2.5 |  | 735
O=S(=O)(C1CC1)n1cc(-c2nccc(Nc3cc(NC4CCC(CO)CC4)c(-c4ccc(N5CCOCC5)cn4)cn3)n2)cn1 (stereo not drawn) [Example 57, ((1s,4s)-4-((6′-((2-(1-(Cyclopropylsulfonyl)-1H-pyrazol-4-yl)pyrimidin-4-yl)amino)-5-morpholino-[2,3′-bipyridin]-4′-yl)amino)cyclohexyl)methanol] | 1.7 |  | 1 |  | 1.7 | 2 | 4.5 | 0.7 | 636 | 4.8 |  |  |  |  |  |  |  |  |  | 
C[C@]1(O)CC[C@@H](Nc2cc(Nc3ccnc(-c4cnn(S(=O)(=O)C5CC5)c4)n3)ncc2-c2ccc(N3CC(F)(F)C3)cn2)CC1 [Example 224, (1s,4s)-4-((6′-((2-(1-(Cyclopropylsulfonyl)-1H-pyrazol-4-yl)pyrimidin-4-yl)amino)-5-(3,3-difluoroazetidin-1-yl)-[2,3′-bipyridin]-4′-yl)amino)-1-methylcyclohexan-1-ol] |  |  |  |  |  |  |  |  |  |  | 2 | 1.6 | 0.4 | 1.4 | 2.1 | 3.5 |  | 171 | 5.2 | > 10000
CN(C)C[C@H]1CC[C@@H](Nc2cc(Nc3ccnc(-c4cnn(S(=O)(=O)C5CC5)c4)n3)ncc2-c2ccc(S(C)(=O)=O)cn2)CC1 [Example 159, N^6′-(2-(1-(Cyclopropylsulfonyl)-1H-pyrazol-4-yl)pyrimidin-4-yl)-N^4′-((1s,4s)-4-((dimethylamino)methyl)cyclohexyl)-5-(methylsulfonyl)-[2,3′-bipyridine]-4′,6′-diamine] |  |  |  |  |  |  |  |  |  |  |  | 0.1 |  | 0.1 |  | 0.2 |  | 1.2 |  | 323
C[C@]1(O)CC[C@@H](Nc2cc(Nc3ccnc(-c4cnn(S(=O)(=O)C5CC5)c4)n3)ncc2-c2ccc(N3CCC(F)(F)CC3)nn2)CC1 [Example 68, (1s,4s)-4-((2-((2-(1-(Cyclopropylsulfonyl)-1H-pyrazol-4-yl)pyrimidin-4-yl)amino)-5-(6-(4,4-difluoropiperidin-1-yl)pyridazin-3-yl)pyridin-4-yl)amino)-1-methylcyclohexan-1-ol] |  | 0.9 | 0.8 | 0.8 | 4.9 | 2.8 | 124 | 1.1 | > 10000 | 23.2 |  |  |  |  |  |  |  |  |  | 
O=S(=O)(C1CC1)n1cc(-c2nccc(Nc3cc(NC4CCC(F)CC4)c(-c4cnc(OC5CCOC5)cn4)cn3)n2)cn1 (stereo not drawn) [Example 152, N^2-(2-(1-(Cyclopropylsulfonyl)-1H-pyrazol-4-yl)pyrimidin-4-yl)-N^4-((1s,4s)-4-fluorocyclohexyl)-5-(5-((tetrahydrofuran-3-yl)oxy)pyrazin-2-yl)pyridine-2,4-diamine] |  |  |  |  |  |  |  |  |  |  | 0.5 |  | 0.1 |  | 214 |  | 13.1 |  | > 10000 | 
C[C@]1(O)CC[C@@H](Nc2cc(Nc3ccnc(-c4cnn(S(=O)(=O)C5CC5)c4)n3)ncc2-c2ccc(CN3CCOCC3)cn2)CC1 [Example 32, (1s,4s)-4-((6′-((2-(1-(Cyclopropylsulfonyl)-1H-pyrazol-4-yl)pyrimidin-4-yl)amino)-5-(morpholinomethyl)-[2,3′-bipyridin]-4′-yl)amino)-1-methylcyclohexan-1-ol] | 0.4 | 0.2 | 0.3 | 0.2 | 0.1 | 0.2 | 1.9 | 0.1 | 120 | 0.3 |  |  |  |  |  |  |  |  |  | 
